In US20250288206A1, “SYSTEMS AND METHODS FOR MONITORING OF DELIVERY OF LABEL-FREE DRUGS” (City University of Hong Kong, priority 2024, published 2025):

Experiments:
[1] = Bloch-McConnell fitting of DMSO CEST peak; format: physicochemical; details: 10% v/v DMSO
Procedure: During the course leading to the present invention, a series of internal and external factors that can influence DMSO's CEST effect were examined. DMSO's concentration linearly correlated with observed signal magnitude, while the change in signal when varying pH from pH 5.5 to pH 8 was less obvious. As temperature went down from 40° C. to 20° C., DMSO's CEST peak gradually moved upfield (please see FIGS. 1F to 1G). It appears that intermolecular interaction between DMSO and water was dependent on temperature. […] Exchange rate and was estimated with Bloch-McConnell fitting. Input of solute concentration was 1.41 M (molar concentration of 10% v/v DMSO) multiplied by a factor of 1.4, which was an estimation of concentration of “structured” water that formed by intermolecular interaction with DMSO and thereby served as relaying sites.

[2] = Release study of BA-DMSO liposome by dialysis (CEST MRI and UV 257 nm); format: physicochemical; details: at the end of dialysis, BA in 10% DMSO in liposomes
Procedure: The size, polydispersity index (PDI), and surface charge of DMSO liposome were measured by dynamic light scattering using Zetasizer (Malvern Instruments, UK). Liposome concentration was measured by light scattering using NanoSight (Malvern Instruments, UK). To study the release property, dialysis cassettes with molecular weight cut-off of 10 kDa (Thermo Fisher, Waltham, USA) were used. The cassettes were first hydrated in HBS for 2 minutes. 1 mL of liposome sample was then loaded into the membrane chamber of two separate cassettes and excess air was removed by gentle squeezing of the membrane. The loaded cassettes were submerged into two beakers with 50 mL HBS at 37° C. At 15 min, 30 min, 1 hour, and 3 hour, 200 μL of dialyzed liposomes were taken out for CEST MRI measurement. In the other dialysis cassette, 1 mL of dialysis medium were taken out from the cassette at each timepoint for UV spectrometric measurement at an absorbance of 257 nm, and 1 mL of fresh medium was added after each time the medium was taken out. The retention of drug within liposome before and after dialysis was determined by measuring the UV absorbance of the supernatant obtained by treating liposome solutions with 10% Triton-X solution, sonicating at 42° C. for 1 hour, and centrifuging at 10,000 rpm. Concentration of BA was determined from BA standard curve.

Compound	estimated exchange rate ([1]; Bloch-McConnell fitting)	Kex ([1]; fitted value, B0 3T, B1 1.2 μT, Tsat 4 s)	BA content released [2]
C[S+](C)[O-] [DMSO, dimethyl sulfoxide]	around 2 Hz	2.1341 s⁻¹	–
O=C1CC(=O)NC(=O)N1 [BA, barbituric acid]	–	–	around 80%
